Test results published in ChEMBL document CHEMBL1201862, “PubChem BioAssay data set” (2004).
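Tested at 5 concentrations; 48 h exposure; 96-well plates; endpoints linearly interpolated, else capped at highest concentration. At the GI50, growth is halved.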 The source made the active and inactive calls. No stated cut-off is given here; in the data, active = GI50 up to about 1.1 µM and inactive = higher.

Experiments:
Experiment in all cases: NCI anticancer screen, dose series, 48 h
[1] = system: HCT-15
[2] = system: OVCAR-8
[3] = system: NCI-H522
[4] = system: SW-620
[5] = system: HCC 2998
[6] = system: SK-MEL-5
[7] = system: SNB-19
[8] = system: NCI-H460
[9] = system: HOP-62
[10] = system: SNB-75
[11] = system: U-251
[12] = system: A498
[13] = system: CCRF-CEM
[14] = system: OVCAR-5
[15] = system: UACC-257
[16] = system: SN12C
[17] = system: NCI-H23
[18] = system: IGROV-1
[19] = system: SR

Row | SMILES | GI50 [1] [µM] | GI50 [2] | GI50 [3] | GI50 [4] | GI50 [5] | GI50 [6] | GI50 [7] | GI50 [8] | GI50 [9] | GI50 [10] | GI50 [11] | GI50 [12] | GI50 [13] | GI50 [14] | GI50 [15] | GI50 [16] | GI50 [17] | GI50 [18] | GI50 [19]
1 | FC(F)(F)P1C2C=CC(CC2)C1(F)F (centres undefined) | > 100 | > 100 µM (inactive) | > 100 µM (inactive) | 63.2 µM (inactive) | > 100 µM (inactive) | > 100 µM (inactive) | > 100 µM (inactive) | > 100 µM (inactive) | > 100 µM (inactive) | > 100 µM (inactive) | > 100 µM (inactive) | > 100 µM (inactive) | > 100 µM (inactive) | > 100 µM (inactive) | > 100 µM (inactive) | > 100 µM (inactive) | > 100 µM (inactive) | > 100 µM (inactive) | 
2 | CCOC(=O)c1ccc(/C(C)=N/NC(N)=S)cc1 | > 100 | > 100 µM (inactive) |  | > 100 µM (inactive) | > 100 µM (inactive) | > 100 µM (inactive) | > 100 µM (inactive) | > 100 µM (inactive) | > 100 µM (inactive) | > 100 µM (inactive) | > 100 µM (inactive) | > 100 µM (inactive) | > 100 µM (inactive) |  |  | > 100 µM (inactive) | > 100 µM (inactive) | > 100 µM (inactive) | 
3 | CCOC(=O)[C@@]12C(C)=CC(=O)O[C@]1(C)C1C(=O)NC(=O)C12 (some centres undefined) |  | > 100 µM (inactive) |  | > 100 µM (inactive) | > 100 µM (inactive) | > 100 µM (inactive) | > 100 µM (inactive) | > 100 µM (inactive) | > 100 µM (inactive) | 85.1 µM (inactive) | > 100 µM (inactive) | > 100 µM (inactive) | > 100 µM (inactive) |  | > 100 µM (inactive) |  | > 100 µM (inactive) | > 100 µM (inactive) | 
4 | O=[N+]([O-])c1ccc2nc3n(c2c1)C(c1c(F)cccc1F)SC3 (centres undefined) |  | > 10 µM (inactive) |  | > 100 µM (inactive) |  | > 10 µM (inactive) | > 100 µM (inactive) | > 100 µM (inactive) | > 100 µM (inactive) |  | > 100 µM (inactive) | > 100 µM (inactive) | > 100 µM (inactive) | > 100 µM (inactive) | > 100 µM (inactive) | > 100 µM (inactive) | > 100 µM (inactive) | > 100 µM (inactive) | 92.3 µM (inactive)
5 | O=C(c1ccccc1)c1ccc2cccc(O)c2n1 | 23.6 | 23.6 µM (inactive) | 8.38 µM (inactive) | 13.5 µM (inactive) | 40.1 µM (inactive) | 22.9 µM (inactive) | 31.1 µM (inactive) |  | 52.4 µM (inactive) | 30.5 µM (inactive) | 18.5 µM (inactive) |  | 1.19 µM (inactive) | 60.8 µM (inactive) |  | 38.8 µM (inactive) | 22.6 µM (inactive) | 93.1 µM (inactive) | 15.4 µM (inactive)
6 | O=C(CC(=O)Nc1ccccc1O)Nc1ccccc1O | 5.68 | 14.2 µM (inactive) | 7.48 µM (inactive) | 4.6 µM (inactive) | 24.7 µM (inactive) | 10 µM (inactive) | > 100 µM (inactive) | 18.3 µM (inactive) | 80.9 µM (inactive) | 18.6 µM (inactive) | 23.9 µM (inactive) | > 100 µM (inactive) | 3.96 µM (inactive) | 59.4 µM (inactive) | 15.5 µM (inactive) | 16.3 µM (inactive) | 22.2 µM (inactive) | 37.4 µM (inactive) | 
7 | O=[N+]([O-])c1cccc(C(O)/C(=N/Nc2ccccc2)C2Nc3ccc([N+](=O)[O-])cc3N=C2O)c1 (centres undefined) | 14.4 | > 100 µM (inactive) | 19.7 µM (inactive) | 49.3 µM (inactive) | 33.4 µM (inactive) | 16.9 µM (inactive) | > 100 µM (inactive) | 42.9 µM (inactive) | > 100 µM (inactive) | 74 µM (inactive) | 88.1 µM (inactive) |  | 81.8 µM (inactive) | 49.3 µM (inactive) | > 100 µM (inactive) | > 100 µM (inactive) | > 100 µM (inactive) | 38.7 µM (inactive) | 
8 | O=[N+]([O-])c1ccc(C2=Nc3ccccc3[S+]([O-])C(c3ccccc3)C2)cc1 (centres undefined) | 27 | 32.4 µM (inactive) | 16.7 µM (inactive) | 23.1 µM (inactive) | 18.6 µM (inactive) | > 10 µM (inactive) | 20 µM (inactive) | 24.5 µM (inactive) | 26.7 µM (inactive) | 19 µM (inactive) |  |  | 15.1 µM (inactive) | 25.8 µM (inactive) | 22.1 µM (inactive) | 23.6 µM (inactive) | 18.2 µM (inactive) | 15.3 µM (inactive) | 
9 | COc1ccc(-c2cn3ccsc3n2)cc1 | 39.6 | > 100 µM (inactive) | 65.3 µM (inactive) | 11.2 µM (inactive) | > 100 µM (inactive) | > 100 µM (inactive) | > 100 µM (inactive) | 87.7 µM (inactive) | > 100 µM (inactive) | > 100 µM (inactive) | 75.2 µM (inactive) |  | 64 µM (inactive) | > 100 µM (inactive) | > 100 µM (inactive) | > 100 µM (inactive) | > 100 µM (inactive) | > 100 µM (inactive) | 15.9 µM (inactive)
10 | O=CN/C=C/c1ccc(O)c(O)c1 | > 100 | > 100 µM (inactive) | 52.1 µM (inactive) | > 100 µM (inactive) | > 100 µM (inactive) |  | > 100 µM (inactive) | > 100 µM (inactive) | > 100 µM (inactive) | 59.8 µM (inactive) | > 100 µM (inactive) | > 100 µM (inactive) | > 100 µM (inactive) | > 100 µM (inactive) | > 100 µM (inactive) | > 100 µM (inactive) | > 100 µM (inactive) | > 100 µM (inactive) | 
11 | COC(=O)CCC(=O)C(C#N)c1ccc(Cl)cc1Cl (centres undefined) | > 100 |  | > 100 µM (inactive) | > 100 µM (inactive) |  |  | > 100 µM (inactive) |  |  | > 100 µM (inactive) | > 100 µM (inactive) |  | > 100 µM (inactive) |  | > 100 µM (inactive) | > 100 µM (inactive) | > 100 µM (inactive) | > 100 µM (inactive) | > 100 µM (inactive)
12 | Cc1cc(N(CCC#N)CCC#N)ccc1/N=N/c1ccc(C(=O)O)cc1 | > 100 | > 100 µM (inactive) | > 100 µM (inactive) | > 100 µM (inactive) | > 100 µM (inactive) | > 100 µM (inactive) |  |  | 61 µM (inactive) | 36.7 µM (inactive) | > 100 µM (inactive) | > 100 µM (inactive) |  | > 100 µM (inactive) | > 100 µM (inactive) | > 100 µM (inactive) | > 100 µM (inactive) | > 100 µM (inactive) | 
13 | O=C(/C=C(\O)C(=O)O)/C=C(\O)c1ccccc1 | > 4.65 | > 100 µM (inactive) |  | > 4.65 µM (inactive) |  |  | > 4.65 µM (inactive) | > 4.65 µM (inactive) | > 4.65 µM (inactive) | > 4.65 µM (inactive) | > 4.65 µM (inactive) | > 4.65 µM (inactive) | > 4.65 µM (inactive) |  | > 4.65 µM (inactive) | > 4.65 µM (inactive) |  | > 4.65 µM (inactive) | > 100 µM (inactive)
14 | COc1ccc(CN=C(N)N)c2ccccc12 | > 100 | 38.8 µM (inactive) | 34.3 µM (inactive) | 41.2 µM (inactive) |  | 20 µM (inactive) | 18.4 µM (inactive) |  | 0.78 µM (active) | 20.5 µM (inactive) | 16.4 µM (inactive) |  | 38.3 µM (inactive) | 22.8 µM (inactive) | 47 µM (inactive) | 14.9 µM (inactive) | 24.3 µM (inactive) |  | 
15 | Clc1ccc(Cc2nc3ccccc3s2)c(Cl)c1 | 16.3 | 19.8 µM (inactive) | 15.7 µM (inactive) | 21.8 µM (inactive) | 18.6 µM (inactive) | 17.5 µM (inactive) | 24.3 µM (inactive) | 19.8 µM (inactive) | 18.3 µM (inactive) | 14.7 µM (inactive) |  | 17.2 µM (inactive) | 5.21 µM (inactive) | 19.3 µM (inactive) | 17.5 µM (inactive) | 16.5 µM (inactive) | > 10 µM (inactive) | 14.8 µM (inactive) | 
16 | CN(C)/C=N\c1nc(=O)n(C2CCC(CO)O2)cc1F (centres undefined) | > 100 | > 100 µM (inactive) | > 100 µM (inactive) | > 100 µM (inactive) | 96.6 µM (inactive) | > 100 µM (inactive) | > 100 µM (inactive) | > 100 µM (inactive) | > 100 µM (inactive) | > 100 µM (inactive) | > 100 µM (inactive) |  | > 100 µM (inactive) | > 100 µM (inactive) | > 100 µM (inactive) | > 100 µM (inactive) | > 100 µM (inactive) |  | 
17 | CCOC(=O)NC(=O)c1cn(CCCOC(=O)CCCCCCCCCCC(=O)OCCCn2cc(C(=O)NC(=O)OCC)c(=O)[nH]c2=O)c(=O)[nH]c1=O |  | > 100 µM (inactive) |  | > 100 µM (inactive) | > 100 µM (inactive) | > 100 µM (inactive) | 49 µM (inactive) | > 100 µM (inactive) | > 100 µM (inactive) |  | > 100 µM (inactive) |  | > 100 µM (inactive) | > 100 µM (inactive) | > 100 µM (inactive) | > 100 µM (inactive) | > 100 µM (inactive) | > 100 µM (inactive) | > 100 µM (inactive)
18 | O=C(Cc1nc2ccccc2s1)Nc1cccc(C(F)(F)F)c1 | 12.4 | 18.1 µM (inactive) | 14.1 µM (inactive) | 19.2 µM (inactive) | 15.6 µM (inactive) | 16.5 µM (inactive) | 16.9 µM (inactive) | 15.8 µM (inactive) | 17.9 µM (inactive) | 13.7 µM (inactive) |  | 5.3 µM (inactive) | 1.81 µM (inactive) | 18.5 µM (inactive) | 14.4 µM (inactive) | 16.1 µM (inactive) | 14.8 µM (inactive) | 13 µM (inactive) | 
